Source: patent US10266544B2, “Aryl substituted aminomethyl spectinomycin analogs as antibacterial agents” (ST. JUDE CHILDREN'S RESEARCH HOSPITAL, INC., priority 2013, dated 2019)
Structures can show the parent of a compound that is named as a salt. Where two headings read alike, the source gives them in different places.

What was measured:
S. pneumoniae = test: Resistance frequency determination and cross resistance of spontaneous mutants; format: cell-based, Streptococcus pneumoniae; details: cross resistance testing of 2 mutants
[1] = test system: Neisseria gonorrhoeae (ATCC 49226); test: Disc diffusion assay; format: cell-based; details: ATCC49226, 4 μg per disc, read-out: Zone of inhibition N.g.
Listeria monocytogenes = test: MIC determination (Table 6); format: cell-based
[2] = test system: Streptococcus pyogenes (ATCC 700294); test: MIC determination, microbroth dilution; format: cell-based; details: ATCC700294; Streptococcus pyogenes (ATCC 700294); read-out: MIC S. py.
[3] = test system: Streptococcus pneumoniae clinical isolates representing several serotypes; test: MIC determination, Streptococcus pneumoniae panel of clinical isolates (Table 7); format: cell-based; details: Streptococcus pneumoniae
[4] = test system: Bacillus subtilis (ATCC 23857); test: MIC determination, microbroth dilution; format: cell-based; details: ATCC23857; Bacillus subtilis (ATCC 23857); read-out: MIC B.s.
[5] = test system: Proteus mirabilis (ATCC 25933); test: MIC determination, microbroth dilution; format: cell-based; details: ATCC25933
Moraxella catarrhalis = test: MIC determination (Table 6); format: cell-based
Yersinia pestis = test: microbe, parasite or virus in culture; format: cell-based; details: read-out: MIC Y.p.
[6] = test system: Escherichia coli (ATCC 700926); test: MIC determination, microbroth dilution; format: cell-based; details: ATCC700926; Escherichia coli (ATCC 700926); read-out: MIC E.c.
[7] = test system: Legionella pneumophila (ATCC 33153); test: microbe, parasite or virus in culture; format: cell-based; details: ATCC33153, 72 h, read-out: Zone of inhibition L.p.
[8] = test system: Klebsiella pneumoniae (ATCC 33495); test: MIC determination, microbroth dilution; format: cell-based; details: ATCC33495
[9] = test system: MRSA, Staphylococcus aureus (NRS70); test: MIC determination, microbroth dilution; format: cell-based; details: Staphylococcus aureus (NRS70); read-out: MIC MRSA
[10] = test system: acinetobacter baumannii (ATCC 19606); test: MIC determination, microbroth dilution; format: cell-based; details: ATCC19606
Bacillus anthracis = test: microbe, parasite or virus in culture; format: cell-based; details: read-out: MIC B.a.
[11] = test system: Stenotrophomonas maltophilia (ATCC 13637); test: MIC determination, microbroth dilution; format: cell-based; details: ATCC13637; Stenotrophomonas maltophilia (ATCC 13637); read-out: MIC S.m.
[12] = test system: live vaccine strain (LVS) of Francisella tularensis; test: microbe, parasite or virus in culture; format: cell-based; details: Francisella tularensis
[13] = test system: Burkholderia cepacia (ATCC 25416); test: MIC determination, microbroth dilution; format: cell-based; details: Burkholderia cepacia
[14] = test system: Proteus vulgaris (ATCC 33420); test: MIC determination, microbroth dilution; format: cell-based; details: ATCC33420
[15] = test system: Streptococcus pneumoniae (R6); test: MIC determination, microbroth dilution; format: cell-based
[16] = test system: Bacillus anthracis, Sterne 34F2; test: microbe, parasite or virus in culture; format: cell-based; details: STERNE34F2, read-out: MIC B.a.
[17] = test system: Neisseria gonorrhoeae (ATCC 49226); test: Agar MIC determination (Alamar Blue); format: cell-based; details: ATCC49226, agar MIC, read-out: MIC N.g.
[18] = test system: Neisseria meningitides (ATCC 13077); test: Disc diffusion assay; format: cell-based; details: ATCC13077, 4 μg per disc, read-out: Zone of inhibition N.m.
[19] = test system: Pseudomonas aeruginosa (PA01); test: MIC determination, microbroth dilution; format: cell-based
[20] = test system: Haemophilus influenza (ATCC 49247); test: microbe, parasite or virus in culture; format: cell-based; details: ATCC49247; Haemophilus influenza; 4 μg per disc; range of at least two experiments; read-out: Zone of inhibition H.i.
E. coli K12 ΔtolC = test: microbe, parasite or virus in culture; format: cell-based; details: Escherichia coli, read-out: MIC E.c. Δtolc
[21] = test system: M. tuberculosis clinical isolates; test: microbe, parasite or virus in culture; format: cell-based; details: Mycobacterium tuberculosis, H37RV, read-out: MIC H37Rv
[22] = test system: Staphylococcus aureus (ATCC 29213); test: MIC determination, microbroth dilution; format: cell-based; details: ATCC29213; Staphylococcus aureus (ATCC 29213); read-out: MIC S.a.
[23] = test system: Enterococcus faecalis (ATCC 33186); test: MIC determination, microbroth dilution; format: cell-based; details: ATCC33186; Enterococcus faecalis (ATCC 33186); read-out: MIC E.f.
[24] = BAA1407, S. pneumoniae BAA-1407, Macrolide Resistant, read-out: MIC BAA-1407
[25] = S. pneumoniae Daw7, PenG Resistant, read-out: MIC Daw7
[26] = S. pneumoniae Daw8, PenG Resistant, read-out: MIC Daw8
[27] = S. pneumoniae Daw9, PenG Resistant, read-out: MIC Daw9
[28] = S. pneumoniae Daw62, PenG Resistant, read-out: MIC Daw62
[29] = S. pneumoniae Daw64, PenG Resistant, read-out: MIC Daw64
[30] = S. pneumoniae OVA6, Macrolide Resistant, read-out: MIC OVA6
[31] = S. pneumoniae T4X, Drug Susceptible, read-out: MIC T4X
[32] = ATCC25416, read-out: MIC B.c., Burkholderia cepacia (ATCC 25416)
[33] = ATCC25416, read-out: MIC B.c., Burkholderia cepacia, Table 6
[34] = Streptococcus pneumoniae (R6), read-out: MIC S. pn.
[35] = Streptococcus pneumoniae, S. pneumoniae R6, Drug Susceptible, read-out: MIC R6

C[C@@H](O)[C@H]1C(=O)N2C(C(=O)O)=C(S[C@@H]3CN[C@H](C(=O)N(C)C)C3)[C@H](C)[C@H]12 [meropenem]
susceptibility of mutants resistant to 2 (S. pneumoniae): susceptible

CCOc1ccc(CNC[C@]2(O)C[C@@H](C)O[C@H]3O[C@@H]4[C@@H](O)[C@H](NC)[C@H](O)[C@H](NC)[C@H]4O[C@]32O)cc1 [compound 4, 3′-(R)-3′-[(4-ethoxyl)benzylaminomethyl)]dihydrospectinomycin Trihydrochloride]
zone of inhibition at 4 µg/disc [1]: 15 to 17 mm | MIC (Listeria monocytogenes): 6.3 to 12.5 µg/mL | MIC [2]: 1.6 to 3.1 µg/mL | MIC [3, 24]: 6.3 µg/mL | MIC ([3]; S. pneumoniae A66.1x, Drug Susceptible, read-out: MIC A66.1x): 0.8 µg/mL | MIC ([3]; S. pneumoniae BHN97x, Drug Susceptible, read-out: MIC BHN97x): 1.6 µg/mL | MIC ([3]; S. pneumoniae D39X, Drug Susceptible, read-out: MIC D39X): 0.8 µg/mL | MIC [3, 25]: 3.1 µg/mL | MIC [3, 26]: 1.6 µg/mL | MIC [3, 27]: 3.1 µg/mL | MIC [3, 28]: 3.1 µg/mL | MIC [3, 29]: 3.1 µg/mL | MIC [3, 30]: 3.1 µg/mL | MIC [3, 31]: 1.6 µg/mL | MIC [4]: 12.5 to 25 µg/mL | MIC [5]: > 200 µg/mL | MIC (Moraxella catarrhalis): 3.1 to 6.3 µg/mL | MIC (Yersinia pestis): > 200 µg/mL | MIC [6]: 25 to 50 µg/mL | zone of inhibition at 4 µg/disc [7]: 18 to 33 mm | MIC [8]: 100 to 200 µg/mL | MIC [9]: 50 µg/mL | MIC [10]: ≥ 200 µg/mL | MIC (Bacillus anthracis): 100 µg/mL | MIC [11]: 25 to 50 µg/mL | MIC ([12]; read-out: MIC F.t.): 0.8 to 3.1 µg/mL | MIC [13, 32]: > 200 µg/mL | MIC [13, 33]: > 200 µg/mL | MIC [14]: > 200 µg/mL | MIC [15, 34]: 1.6 to 3.1 µg/mL | MIC [15, 35]: 1.6 µg/mL | MIC [16]: 100 µg/mL | MIC [17]: 12.5 µg/mL | zone of inhibition at 4 µg/disc [18]: 16 to 18 mm | MIC [19]: 100 to 200 µg/mL | zone of inhibition at 4 µg/disc [20]: 15 to 18 mm | MIC (E. coli K12 ΔtolC): 6.3 µg/mL | MIC [21]: 25 µg/mL | MIC [22]: 25 to 50 µg/mL | MIC [23]: 12.5 to 25 µg/mL

CN[C@@H]1[C@H](O)[C@H](NC)[C@H]2O[C@]3(O)[C@H](O[C@@H]2[C@H]1O)O[C@H](C)C[C@@]3(O)CNCc1ccc(OC(F)(F)F)cc1 [compound 11, 3′-(R)-3′-[(4-trifluoromethoxyl)benzylaminomethyl)]dihydrospectinomycin Trihydrochloride]
zone of inhibition at 4 µg/disc [1]: 16 to 20 mm | MIC (Listeria monocytogenes): 12.5 to 25 µg/mL | MIC [2]: 1.6 µg/mL | MIC [3, 24]: 6.3 µg/mL | MIC [3, 25]: 3.1 µg/mL | MIC [3, 26]: 1.6 µg/mL | MIC [3, 27]: 1.6 µg/mL | MIC [3, 28]: 1.6 µg/mL | MIC [3, 29]: 3.1 µg/mL | MIC [3, 30]: 6.3 µg/mL | MIC [3, 31]: 0.8 µg/mL | MIC [4]: 100 µg/mL | MIC [5]: > 200 µg/mL | MIC (Moraxella catarrhalis): 6.3 µg/mL | MIC (Yersinia pestis): 200 µg/mL | MIC [6]: 25 µg/mL | zone of inhibition at 4 µg/disc [7]: 21 mm | MIC [8]: > 200 µg/mL | MIC [9]: 100 to 200 µg/mL | MIC [10]: > 200 µg/mL | MIC (Bacillus anthracis): 100 to 200 µg/mL | MIC [11]: 50 to 100 µg/mL | MIC [12]: 1.6 µg/mL | MIC ([12]; read-out: MIC F.t.): 1.6 to 3.1 µg/mL | MIC [13, 32]: > 200 µg/mL | MIC [13, 33]: > 200 µg/mL | MIC [14]: > 200 µg/mL | MIC [15, 34]: 3.1 µg/mL | MIC [15, 35]: 3.1 µg/mL | MIC [16]: 100 to 200 µg/mL | MIC [17]: 12.5 µg/mL | zone of inhibition at 4 µg/disc [18]: 18 to 19 mm | MIC [19]: 100 to 200 µg/mL | zone of inhibition at 4 µg/disc [20]: 16 mm | MIC (E. coli K12 ΔtolC): 12.5 µg/mL | MIC [21]: 50 µg/mL | MIC [22]: 100 µg/mL | MIC [23]: 25 to 50 µg/mL
